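In this assay, cells in 96-well plates receive the compound at five concentrations for 48 hours. Endpoints are linearly interpolated between the surrounding concentrations. TGI: total growth inhibition.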
Legend:
Test in all cases: inhibition of tumour cell growth, NCI panel, 48 h
786-0 renal = tested on: 786-0 renal
A549 NSCLC = tested on: A549 NSCLC
ACHN renal = tested on: ACHN renal
CCRF-CEM leukemia = tested on: CCRF-CEM leukemia
COLO 205 colon = tested on: COLO 205 colon
DMS 114 small cell lung = tested on: DMS 114 small cell lung
DMS 273 small cell lung = tested on: DMS 273 small cell lung
EKVX NSCLC = tested on: EKVX NSCLC
HCC-2998 colon = tested on: HCC-2998 colon
HCT-116 colon = tested on: HCT-116 colon
HCT-15 colon = tested on: HCT-15 colon
HL-60(TB) leukemia = tested on: HL-60(TB) leukemia
HOP-62 NSCLC = tested on: HOP-62 NSCLC
HT29 colon = tested on: HT29 colon
IGROV1 ovarian = tested on: IGROV1 ovarian
K-562 leukemia = tested on: K-562 leukemia
KM12 colon = tested on: KM12 colon
KM20L2 colon = tested on: KM20L2 colon
LOX IMVI melanoma = tested on: LOX IMVI melanoma
LXFL 529 NSCLC = tested on: LXFL 529 NSCLC
M14 melanoma = tested on: M14 melanoma
M19-MEL melanoma = tested on: M19-MEL melanoma
MALME-3M melanoma = tested on: MALME-3M melanoma
MOLT-4 leukemia = tested on: MOLT-4 leukemia
NCI-H226 lung = tested on: NCI-H226 lung
NCI-H23 lung = tested on: NCI-H23 lung
NCI-H460 lung = tested on: NCI-H460 lung
NCI-H522 lung = tested on: NCI-H522 lung
OVCAR-3 ovarian = tested on: OVCAR-3 ovarian
OVCAR-8 ovarian = tested on: OVCAR-8 ovarian
RPMI-8226 leukemia = tested on: RPMI-8226 leukemia
SF-268 CNS = tested on: SF-268 CNS
SF-295 CNS = tested on: SF-295 CNS
SF-539 CNS = tested on: SF-539 CNS
SK-MEL-28 melanoma = tested on: SK-MEL-28 melanoma
SK-MEL-5 melanoma = tested on: SK-MEL-5 melanoma
SK-OV-3 ovarian = tested on: SK-OV-3 ovarian
SN12C renal = tested on: SN12C renal
SNB-19 CNS = tested on: SNB-19 CNS
SR leukemia = tested on: SR leukemia
SW-620 colon = tested on: SW-620 colon
TK-10 renal = tested on: TK-10 renal
U251 CNS = tested on: U251 CNS
UACC-257 melanoma = tested on: UACC-257 melanoma
UACC-62 melanoma = tested on: UACC-62 melanoma
UO-31 renal = tested on: UO-31 renal
XF 498 CNS = tested on: XF 498 CNS
A498 renal = tested on: A498 renal
CAKI-1 renal = tested on: CAKI-1 renal
DLD-1 colon = tested on: DLD-1 colon
HOP-92 NSCLC = tested on: HOP-92 NSCLC
OVCAR-4 ovarian = tested on: OVCAR-4 ovarian
OVCAR-5 ovarian = tested on: OVCAR-5 ovarian
RXF 393 renal = tested on: RXF 393 renal
SK-MEL-2 melanoma = tested on: SK-MEL-2 melanoma
SNB-75 CNS = tested on: SNB-75 CNS
SNB-78 CNS = tested on: SNB-78 CNS

Measured: TGI

CC1(C)CC(C)(C)CC(O)(C2(O)CC(C)(C)CC(C)(C)C2)C1
not listed: A498 renal | CAKI-1 renal | DLD-1 colon | HOP-92 NSCLC | OVCAR-4 ovarian | OVCAR-5 ovarian | RXF 393 renal | SK-MEL-2 melanoma | SNB-75 CNS | SNB-78 CNS
> 100 µM: all other assays above

COc1ccc(C(=O)N2c3ccccc3N(C)n3cccc3C2CC(=O)O)cc1 (centres undefined)
not listed: HCT-116 colon | SR leukemia | U251 CNS | XF 498 CNS
> 100 µM: all other assays above

CCOC(=O)CC[C@H](NC(=O)c1[nH]cnc1/N=N/N(C)C)C(=O)OCC
not listed: KM20L2 colon | SR leukemia | TK-10 renal | HOP-92 NSCLC | OVCAR-5 ovarian | RXF 393 renal | SNB-75 CNS | SNB-78 CNS
> 100 µM: all other assays above

From PubChem BioAssay (NCI)
